Biological target: T1, TRPM7/ChaK1 kinase domain (purified recombinant ChaK1-cat) (Mus musculus, UniProt Q923J1)
T1 construct: Expression and purification of recombinant ChaK1 kinase domain was performed as described; made in house; host or cells: bacteria
T1 sequence (Q923J1 1592-1822 limits assumed): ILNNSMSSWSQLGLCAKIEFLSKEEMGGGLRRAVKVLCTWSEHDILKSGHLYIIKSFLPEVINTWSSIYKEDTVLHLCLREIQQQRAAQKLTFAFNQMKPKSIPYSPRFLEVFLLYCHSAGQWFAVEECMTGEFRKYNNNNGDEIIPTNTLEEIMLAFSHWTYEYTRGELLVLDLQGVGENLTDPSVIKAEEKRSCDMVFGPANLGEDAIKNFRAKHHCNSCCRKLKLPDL
Assay: ChaK1-cat kinase activity: phosphorylation of myelin basic protein with [γ-33P]ATP, SDS-PAGE and autoradiography
Format: biochemical
Protocol: The reaction was performed using purified recombinant ChaK1-cat and myelin basic protein. The samples were analyzed by SDS-PAGE and autoradiography; and
The bands corresponding to phosphorylated myelin basic protein (on the autoradiogram shown in B) were quantified using the Kodak 1D imaging program.
Protein samples were incubated in phosphorylation mixture consisting of 50 mM HEPES-KOH (pH 7.4), 10 mM MgCl2, 4 mM MnCl2, 0.5 mM CaCl2 (unless stated otherwise), 100 μM ATP, and 2 μCi of [γ-^33P]ATP (specific activity of 3000 Ci/mmol) with 0.1 μg of purified recombinant ChaK1. In assays involving annexin 0.5 μg of annexin was used. The reactions were run at 30° C. for 5 min and were terminated by incubation in an ice/water bath and addition of Laemmli sample buffer. Samples were boiled for 5 min and analyzed by SDS-PAGE and autoradiography.
We analyzed the sensitivity of ChaK1 to some known inhibitors of conventional protein kinases.

Row | Structure (SMILES) | effect on the kinase activity of ChaK1 (concentrations up to 0.1 mM (FIG. 6B)) | inhibitory effect on ChaK1 (staurosporine even at the concentration of 100 μM (FIG. 6B)) | IC50 [µM]
1 | CN[C@@H]1C[C@H]2O[C@@](C)([C@@H]1OC)n1c3ccccc3c3c4c(c5c6ccccc6n2c5c31)C(=O)NC4 [staurosporine] | does not have any effect | did not produce any inhibitory effect | –
2 | CC(=O)c1c(O)c(C)c(O)c(Cc2c(O)c3c(c(C(=O)/C=C/c4ccccc4)c2O)OC(C)(C)C=C3)c1O [rottlerin] | – | – | ~35

Reference: patent US20090163578A1, “NOVEL MODIFICATION OF IMMUNOMODULATORY PROTEIN” (UNIVERSITY OF MEDICINE AND DENTISTRY OF NEW JERSEY, priority 2004, published 2009)
